Assay [1] has as its system DLD-1 and HCT116 CRC cells. Description: Cell cycle analysis by flow cytometry (propidium iodide). The format is cell-based, human. The settings on record: 10 μM, over three days, vs vehicle, ML264, SR15006. How it is done: SR18662 alters the cell cycle pattern of CRCs. […] We have also evaluated the impact of SR15006 and SR18662 on cell cycle progression. We treated DLD-1 and HCT116 CRC cells over the course of three days with vehicle or 1 μM or 10 μM of test compound and then analyzed cell cycle using flow cytometry.
Cell proliferation, cell cycle and apoptosis assays. For cell proliferation experiments, cell cycle, and apoptosis determination, DLD-1 and HCT116 cells were treated with 1 or 10 μM of each compound or with vehicle (DMSO). The cells were collected at 24, 48, and 72 h post-treatment and analyzed as previously described (24). Each experiment was performed in triplicate.
For orientation: Flow cytometry measures light scatter and fluorescence of single cells or particles in a stream.

Assay [2] concerns DLD-1-derived xenografts. Description: Histology, immunofluorescence and immunohistochemistry of DLD-1-derived xenografts. The format is in vivo, mouse. How it is done: SR18862 inhibits the growth of CRC xenografts in vivo. To evaluate SRI8662 in an in vivo model we used CRC cells for a mouse xenograft study. As described in more detail in the Examples section, nude mice were injected with DLD-1 CRC cells. Tumors were allowed to grow to an approximate size of 100 mm^3, and then mice were injected with vehicle or with varied concentrations of SR18662, given once a day or twice a day for five days, followed by two days without injection, and then followed by five days with injections. The experiment was completed the day after the last injection. […] Significant differences in tumor size are apparent at the end of the treatment schedule (FIG. 6B). To further characterize the impact of SR18662 on the features of isolated tumors, we compared vehicle-treated mice with mice that had been treated with SR18662 twice a day. […] Because SR18662 had induced cell apoptosis and death in the in vitro setting, we stained the xenografts with PanCK and TUNEL to estimate the levels of apoptosis in the in vivo context.
Immunofluorescence and immunohistochemistry. Tumors dissected from mice were first fixed in Bouin's fixative (50% ethanol+5% acetic acid in water) for 1 h, then fixed overnight in 10% buffered formalin (Fisher Scientific). The tissues were then paraffin-embedded using an automated processor, sectioned at 5 μm, collected onto charged slides and baked in a 65° C. oven overnight, and were subsequently deparaffinized in xylene. […]
Tissue sections were first incubated with blocking buffer (5% BSA in TBS-Tween) for 30 min at 37° C. and then with primary antibody at 4° C. overnight in a humidified chamber with gentle shaking. […] Slides were analyzed under a Nikon Eclipse 90i microscope (Nikon) and representative photomicrographs were taken. […]

[3] abbreviates: 25 mg/kg twice per day vs vehicle.

SMILES strings stand for the structures.

The results in this text go back to patent US12486227B2, “Small molecules for cancer therapy that reduce the expression of transcription factors KLF5 and EGR-1” (University of Florida Research Foundation, Incorporated, priority 2019, dated 2025).

With `CS(=O)(=O)N1CCN(C(=O)CNC(=O)/C=C/c2ccc(Cl)c(Cl)c2)CC1` [Example 9, (E)-3-(3,4-dichlorophenyl)-N-(2-(4-(methylsulfonyl)piperazin-1-yl)-2-oxoethyl)acrylamide], the subG1 population result in assay [1] is given as “significant increase in the number of cells within the subG1 population”. Moreover, in assay [2] (25 mg/kg twice a day, immunohistochemistry), the “expression levels of KLF5 and EGR1 in xenografts” value is given as “significantly decreased”. In assay [2] (setting [3]), the “TUNEL staining in xenografts” value is given as “increase of TUNEL staining” and the “fibrosis (PanCK/Vimentin stain) in xenografts” value is on record as “higher level of fibrosis”.
